For data set [1], the system named is primary human aortic smooth muscle cells (HASMCs). Kind of data set: Immunoblot of p-Smad2 and SM-calponin in control and FRS2α knockdown HASMCs treated with SB431542. The class given is cell-based. To be noted: SB431542 10 μM. An excerpt:
FIGS. 2A-2F are images and plots showing that FRS2α knockdown increases smooth muscle marker gene expression via the TGFβ pathway in primary human aortic smooth muscle cells (HASMCs). […] Blots are representative of four independent experiments. […] R-actin was used for sample loading normalization. […] FIGS. 2D-2F show immunoblots of smooth muscle markers, phosphorylated Smad2 (p-Smad2), and TGFβR1 expression in control and FRS2α knockdown HASMCs treated with SB431542 ([…]), TGFβR2 or Smad2 shRNA lentiviruses. Blots are representative of three independent experiments.
The TGFβR1 kinase inhibitor SB431542 (Sigma S4317) was reconstituted in DMSO (Sigma D2650) and used at a final concentration of 10 μM in cell culture.
Mouse Tgfbr1 and Tgfbr2 shRNA lentiviral constructs were purchased from Sigma. Human FGFR1, human Smad2 and human TGFβR2 shRNA lentiviral constructs were purchased from Sigma and human FRS2α shRNA lentiviral construct was purchased from Open Biosystems. For the production of shRNA lentivirus, 3.7 μg of A8.2, 0.2 μg of VSVG, and 2.1 μg of pLKO.1 carrying the control, FGFR1, FRS2α, Smad2, or TGFβR2 shRNA were co-transfected into 293T cells using X-tremeGENE 9 DNA Transfection Reagent (Roche 06365787001). Forty-eight hours later the medium was harvested, cleared by 0.45 μm filter (PALL Life Sciences PN4184), mixed with polybrene (5 μg/ml) (Sigma H9268), and applied to cells. […]

The subject of data set [2] is Apoe^−/− mice. Kind of data set: Oil Red O atherosclerotic lesion area after 7C1-siTgfbr and/or rapamycin, 4 months of high fat diet. The class given is in vivo, mouse. The text has this:
FIGS. 45A-45B are a graph and a series of images showing that 7C1-siTgfbr and rapamycin suppress atherosclerosis lesion development in Apoe^−/− mice after 4 months of high fat diet. FIG. 45A: Time frame of 7C1-siTgfbr1/Tgfbr2 lipid nanoparticle and rapamycin injections. FIG. 45B: Representative photomicrographs of Oil Red O-stained atherosclerotic lesions in PBS, 7C1-siLuciferase, DMSO, Rapamycin, or 7C1-siTgfbr treated mice.
FIG. 46 is a histogram illustrating the quantification of atherosclerotic lesions from FIG. 45B. Lesion area quantification. % Lesion area is the lesion area/total area of aorta. All data shown as mean±SD. (***p<0.001; one-way ANOVA with Newman-Keuls post hoc test for multiple comparison correction).
Apoe^−/− and Frs2^SMCKO/Apoe^−/− male mice were fed a Western diet (40% kcal % Fat, 1.25% Cholesterol, 0% Cholic Acid) for 8 or 16 weeks (Research Diets, product #D12108) starting at the age of 8 weeks. After 8 or 16 weeks of being fed a high-fat diet, mice were anesthetized and euthanized. […] The lesions located in the aorta, aortic roots and abdominal aorta were analyzed using Oil Red 0 staining. […] The surface lesion area was quantified with ImageJ software (NIH). […]
FIG. 46 is a histogram illustrating the quantification of atherosclerotic lesions from FIG. 45B. […]

Data set [3] has as its system Apoe^−/− and Frs2α^iECKO/Apoe^−/− mice. The experiment in a line: Tolerability of 7C1-let-7 injections: body weight, blood counts, serum lipids, organs, liver function, skin. Format: in vivo, mouse. To be noted: after 16 weeks on high cholesterol diet. An excerpt: FIGS. 24A-24E are a series of graphs showing that 7C1-let-7 mimics treatment have no effect on mouse body weight and serum lipid profile. FIG. 24A: Time frame of gene inactivation and 7C1 lipid nanoparticle injections. FIG. 24B: Serum triglycerides, total cholesterol, and HDL-C levels from Apoe^−/− and Frs2^iECKO/Apoe^−/− mice after 16 weeks on a high cholesterol diet (NS: not significant by one-way ANOVA with Newman-Keuls post-hoc test). FIG. 24C: Individual body weights in each group were measured every week. FIGS. 24D-24E: qPCR analysis of let-7b and Tgfbr1 expression in lung endothelial cells after treatment with 7C1-let-7 particles. All data shown as mean±s.d. (*p<0.05; **p<0.01; ***p<0.001 compared with Luciferase; one-way ANOVA with Newman-Keuls post hoc test for multiple comparison correction). N=4-6 mice per group.
Serum was obtained through centrifugation of the blood for 2 min at 10,000 rpm at 4° C. and stored at −80° C. until each assay was performed. […]
A decline in let-7 miRs expression has been previously linked to activation of TGFβ signaling (Chen et al., 2012, Cell reports 2: 1684-1696; Chen et al, 2014 Science signaling 7, ra90). […] Measurements of the following were taken from mice in each group: body weight, complete blood counts, skin pictures, serum lipid profiles, organ weight, and whole aorta oil red-O staining and quantification (FIGS. 24C, 25, 23, 24B, 27, and 29).

In the case of `NC(=O)c1ccc(-c2nc(-c3ccc4c(c3)OCO4)c(-c3ccccn3)[nH]2)cc1` [SB431542], in data set [1], the “FRS2α knockdown-induced increase in SM-calponin levels” value is on record as “effectively attenuated” and the “FRS2α knockdown-induced increase in p-Smad2 levels” value was “effectively attenuated”.

In the case of `CO[C@H]1C[C@@H]2CC[C@@H](C)[C@@](O)(O2)C(=O)C(=O)N2CCCC[C@H]2C(=O)O[C@H]([C@H](C)C[C@@H]2CC[C@@H](O)[C@H](OC)C2)CC(=O)[C@H](C)/C=C(\C)[C@@H](O)[C@@H](OC)C(=O)[C@H](C)C[C@H](C)/C=C/C=C/C=C/1C` [rapamycin], the “reduction in atherosclerotic lesion (% lesion area = lesion area/total area of aorta)” value in data set [2] was found to be 58%.

With “mi-let-7bH: heavily 2′-O-methyl modified double stranded let-7b miRNA mimic, 5p UGAGGuAGuAGGUUGUGUGGUU, 3p cuAuAcAAccuAcuGccuuccc”, the “serum triglycerides, total cholesterol and HDL cholesterol levels (serum lipid profile)” value in data set [3] was “similar”.

For “mi-let-7bL: lightly 2′-O-methyl modified double stranded let-7b miRNA mimic, 5p UGAGGuAGuAGGUUGUGUGGUU, 3p CuAuAcAACCuACUGCCUUCCC”, the “serum triglycerides, total cholesterol and HDL cholesterol levels (serum lipid profile)” value in data set [3] was “similar”.

(Values after US11326167B2, “Methods and compositions for treating atherosclerosis” (YALE UNIVERSITY, priority 2016, dated 2022).)
